This note sets out measurements from ChEMBL document CHEMBL5143557, “Synthesis and biological evaluation of 3β-O-neoglycosides of caudatin and its analogues as potential anticancer agents” (Bioorg Med Chem, 2022).

Holding throughout (format): functional, cell-based
The subject of assay [1] is MCF7. Briefly: Antiproliferative activity against human MCF7 cells after 48 hrs by MTT assay. The conditions noted are these: MCF7, 48 h.
Assay [2] relates to HCT-116. Briefly: Antiproliferative activity against human HCT-116 cells after 48 hrs by MTT assay. The conditions noted are these: HCT-116, 48 h.
The subject of assay [3] is HeLa. Briefly: Antiproliferative activity against human HeLa cells after 48 hrs by MTT assay.
Assay [4] has as its system HepG2. Put plainly: Antiproliferative activity against human HepG2 cells after 48 hrs by MTT assay. Conditions: HepG2, 48 h.

For `CC(=O)O[C@H]1[C@H](O[C@H]2CC[C@@]3(C)C(=CC[C@]4(O)[C@@H]3C[C@@H](OC(=O)/C=C(\C)C(C)C)[C@@]3(C)[C@]4(O)CC[C@@]3(O)C(C)=O)C2)OC[C@@H](OC(C)=O)[C@H]1OC(C)=O`, the 50% inhibitory concentration (IC50) in assay [1] worked out at 61.1 µM; in assay [2], 52.1 µM; in assay [3], 58.7 µM; in assay [4], 30.8 µM.

In the case of `CC(=O)O[C@@H]1[C@@H](OC(C)=O)[C@H](O[C@H]2CC[C@@]3(C)C(=CC[C@]4(O)[C@@H]3C[C@@H](OC(=O)/C=C(\C)C(C)C)[C@@]3(C)[C@]4(O)CC[C@@]3(O)C(C)=O)C2)OC[C@H]1OC(C)=O`, the IC50 worked out at 50.4 µM in assay [1], 34.9 µM in assay [2], 85.3 µM in assay [3] and 42.6 µM in assay [4].

For `CC(=O)O[C@@H]1[C@@H](OC(C)=O)[C@H](O[C@H]2CC[C@@]3(C)C(=CC[C@]4(O)[C@@H]3C[C@@H](OC(=O)/C=C(\C)C(C)C)[C@@]3(C)[C@]4(O)CC[C@@]3(O)C(C)=O)C2)OC[C@@H]1OC(C)=O`, the IC50 in assay [1] was found to be 43.1 µM; in assay [2], 23.8 µM; in assay [3], 33.6 µM; in assay [4], 23.6 µM.

`CC(=O)O[C@@H]1[C@@H](O[C@H]2CC[C@@]3(C)C(=CC[C@]4(O)[C@@H]3C[C@@H](OC(=O)/C=C(\C)C(C)C)[C@@]3(C)[C@]4(O)CC[C@@]3(O)C(C)=O)C2)OC[C@H](OC(C)=O)[C@H]1OC(C)=O`: the IC50 in assay [1] was 47 µM; in assay [2] it was 12 µM; in assay [3], 28.1 µM; in assay [4], 15.8 µM.

On to `CC(=O)O[C@H]1C[C@H](O[C@H]2CC[C@@]3(C)C(=CC[C@]4(O)[C@@H]3C[C@@H](OC(=O)/C=C(\C)C(C)C)[C@@]3(C)[C@]4(O)CC[C@@]3(O)C(C)=O)C2)OC[C@H]1OC(C)=O`, for which the half-inhibitory concentration (IC50) in assay [1] is 26.2 µM; in assay [2], 31.6 µM; in assay [3] it was 43.8 µM; in assay [4], 14.1 µM.

As for `CC(=O)OC[C@H]1O[C@@H](O[C@H]2CC[C@@]3(C)C(=CC[C@]4(O)[C@@H]3C[C@@H](OC(=O)c3ccc(O)cc3)[C@@]3(C)[C@]4(O)CC[C@@]3(O)C(C)=O)C2)[C@H](OC(C)=O)[C@@H](OC(C)=O)[C@H]1OC(C)=O`, the 50% inhibitory concentration (IC50) in assay [1] came to 20.8 µM; in assay [2] it was 9.32 µM; in assay [3], 22.8 µM; in assay [4] it was 9.9 µM.

Turning to `CC(=O)OC[C@H]1O[C@@H](O[C@H]2CC[C@@]3(C)C(=CC[C@]4(O)[C@@H]3C[C@@H](OC(=O)/C=C(\C)C(C)C)[C@@]3(C)[C@]4(O)CC[C@@]3(O)C(C)=O)C2)[C@H](OC(C)=O)[C@@H](OC(C)=O)[C@H]1OC(C)=O`, the IC50 stood at 16.9 µM in assay [1], 7.41 µM in assay [2], 24.8 µM in assay [3] and 9.7 µM in assay [4].

Consider `CC(=O)O[C@@H]1[C@@H](OC(C)=O)[C@H](C)O[C@@H](O[C@H]2CC[C@@]3(C)C(=CC[C@]4(O)[C@@H]3C[C@@H](OC(=O)c3ccc(O)cc3)[C@@]3(C)[C@]4(O)CC[C@@]3(O)C(C)=O)C2)[C@@H]1OC(C)=O`, for which the IC50 was 53.6 µM in assay [1], 48.7 µM in assay [2], 57.1 µM in assay [3] and 41.4 µM in assay [4].

For `CC(=O)OC[C@H]1O[C@@H](O[C@H]2CC[C@@]3(C)C(=CC[C@]4(O)[C@@H]3C[C@@H](OC(=O)/C=C/c3ccccc3)[C@@]3(C)[C@]4(O)CC[C@@]3(O)[C@H](C)OC(=O)c3cccnc3)C2)[C@H](OC(C)=O)[C@@H](OC(C)=O)[C@@H]1OC(C)=O`, the IC50 stood at 82.8 µM in assay [1], 36.1 µM in assay [2], 79.6 µM in assay [3] and 26.4 µM in assay [4].

On to `COc1cc2c(c(OC)c1OC)-c1ccc(OC)c(=O)cc1[C@@H](NC(C)=O)CC2` [COLCHICINE], for which the IC50 is 0.028 µM in assay [1], 0.046 µM in assay [2] and 0.064 µM in assay [4].
